Measurements: US11707447B1
“Also recorded” adds a separate entry of the source.

Tests used:
in vitro = in vitro ADME, human
Text: (§1) A fundamental evaluation in drug development is the assessment of absorption, distribution, metabolism, excretion, and pharmacokinetics (ADME/PK) (Eddershaw et al., 2000, Drug Discovery Today 5(9): 409-414). […] Drug stability upon exposure to human liver microsomes and liver S9 cellular fractions is a common in vitro assay to approximate in vivo, liver-based drug metabolism (Richardson et al., 2016 Drug Metabolism Letters 10:83-90). First-pass metabolism is also often approximated in vitro using intestinal microsome and cellular S9 fractions (Hatley et al., 2017, Biopharmaceuticals & Drug Disposition, 38(2):155-160). Further, it is well known that human serum, and particularly circulating serum esterases can contribute to systemic drug metabolism (Williams, F M 1987, Pharmacology and Therapeutics, 34:99-109). Many pharmacological agents are classified as prodrugs, as they undergo metabolic transformation in vivo upon administration to release the active drug compound into the systemic compartment (Zawilska J B, et al. 2013, Pharmacological Reports, 65:1-14). Psilocybin, a serotonergic psychedelic agent, is well known prodrug that is metabolized into the psychoactive product, psilocin (Dinis-Oliveira, R J 2017, Drug Metabolism Reviews, 49(1):84-91). To evaluate the capacity of test molecules to similarly serve as prodrugs of psilocin, time-dependent, metabolic stability assays using human AB serum, human intestinal microsomes (HIM), human intestinal S9 fractions (HIS9), human liver microsomes (HLM), human liver S9 fractions (HLS9), human alkaline phosphatase, and porcine esterase were performed. […] Liquid chromatography coupled mass spectrometry (LC-MS) was employed to track the conversion of the test molecules into psilocin. All intestinal and liver fractions and NADPH RapidStart reagent was purchased from Sekisui/XenoTech. Human AB serum was purchased from Sigma. For intestine and liver metabolism assays, 2.5 μM candidate compounds were incubated in 400 μg/ml of each cellular fraction (HLM, HLS9, HIM, or HIS9) in 50 mM potassium phosphate buffer (pH 7.4) containing 3 mM MgCl2 and 1 mM EDTA supplemented with NADPH RapidStart at 37° C. Samples were taken at the start of the assay, and at every 20 minutes for 2 hours. Time-point samples were precipitated with 1:1 volume of acetonitrile to quench the reaction before centrifugation at 4000×g for 20 minutes. Supernatants were analyzed for the presence of candidate prodrugs (parent molecule) and psilocin (the predicted metabolite) using Orbitrap LC-MS (Thermo Scientific) using previously described methods (Menéndez-Perdomo et al., 2021, J. Mass Spectrom., 56: e4683). The serum assays were carried out in 10% human AB serum in 50 mM potassium phosphate buffer (pH 7.4) containing 3 mM MgCl2 and 1 mM EDTA. Bovine alkaline phosphatase assays were carried out using one unit of purified enzyme in 50 mM potassium phosphate buffer (pH 7.4) containing 3 mM MgCl2 and 1 mM EDTA. Porcine esterase assays were carried out using one unit of purified enzyme in 50 mM potassium phosphate buffer (pH 7.4) containing 3 mM MgCl2 and 1 mM EDTA. Assay concentrations (μM) of both parent ‘prodrug’ molecule and psilocin metabolite, as quantified through LC-MS using routine standard curve procedures, were plotted as functions of assay time (minutes). The metabolism rate (T1/2) was determined from the metabolism curve plot using the one phase decay feature of GraphPad PRISM software (Version 9.2.0). The quantity of parent prodrug at time zero was set as 100%.
Positive controls were first tested to ensure that assays were functioning properly.

[1] = In vitro metabolic stability / psilocin release, human AB serum; assay type: in vitro ADME; settings: AB serum
Text: as §1, with “For intestine and liver metabolism assays, 2.5 μM candidate compounds were incubated in 400 μg/ml of each cellular fraction (HLM, HLS9, HIM, or HIS9) in 50 mM potassium phosphate buffer (pH 7.4) containing 3 mM MgCl2 and 1 mM EDTA supplemented with NADPH RapidStart at 37° C. Samples were taken at the start of the assay, and at every 20 minutes for 2 hours. Time-point samples were precipitated with 1:1 volume of acetonitrile to quench the reaction before centrifugation at 4000×g for 20 minutes.” left out, “The serum assays were carried out in 10% human AB serum in 50 mM potassium phosphate buffer (pH 7.4) containing 3 mM MgCl2 and 1 mM EDTA. Bovine alkaline phosphatase assays were carried out using one unit of purified enzyme in 50 mM potassium phosphate buffer (pH 7.4) containing 3 mM MgCl2 and 1 mM EDTA. Porcine esterase assays were carried out using one unit of purified enzyme in 50 mM potassium phosphate buffer (pH 7.4) containing 3 mM MgCl2 and 1 mM EDTA.” left out, “100%. […]” for “100%.”

[2] = Stability in enzyme-free control buffer; assay type: in vitro ADME; settings: enzyme-free buffer pH 7.4
Text: A fundamental evaluation in drug development is the assessment of absorption, distribution, metabolism, excretion, and pharmacokinetics (ADME/PK) (Eddershaw et al., 2000, Drug Discovery Today 5(9): 409-414). […] Drug stability upon exposure to human liver microsomes and liver S9 cellular fractions is a common in vitro assay to approximate in vivo, liver-based drug metabolism (Richardson et al., 2016 Drug Metabolism Letters 10:83-90). First-pass metabolism is also often approximated in vitro using intestinal microsome and cellular S9 fractions (Hatley et al., 2017, Biopharmaceuticals & Drug Disposition, 38(2):155-160). […] Supernatants were analyzed for the presence of candidate prodrugs (parent molecule) and psilocin (the predicted metabolite) using Orbitrap LC-MS (Thermo Scientific) using previously described methods (Menéndez-Perdomo et al., 2021, J. Mass Spectrom., 56: e4683). […] Assay concentrations (μM) of both parent ‘prodrug’ molecule and psilocin metabolite, as quantified through LC-MS using routine standard curve procedures, were plotted as functions of assay time (minutes). The metabolism rate (T1/2) was determined from the metabolism curve plot using the one phase decay feature of GraphPad PRISM software (Version 9.2.0). The quantity of parent prodrug at time zero was set as 100%.

[3] = Mouse pharmacokinetic (PK) evaluation of drug metabolism to psilocin; settings: for Plasma concentration of psilocin: 24 h

For `CN(C)CCc1c[nH]c2cccc(OP(=O)(O)O)c12` [psilocybin, reference compound], the “metabolic stability / conversion to psilocin (in words)” value (“metabolic stability / conversion” below) (in vitro; HLM) was “stable in liver fractions with no conversion to psilocin”, the “metabolic stability / conversion” value (in vitro; HLS9) was “stable in liver fractions with no conversion to psilocin” and the “metabolic stability / conversion” value [1] was “stable in serum with no conversion to psilocin”. For the same compound, the “stability in assay buffer (in words)” value [2] was “stability of psilocybin was confirmed in assay buffer”, the “Plasma concentration of administered (parent) compound” value (from here on “Plasma concentration of administered”) ([3]; 1 mg/kg i.v., 0.5 h, individual mice) was “No Peak” and the “Plasma concentration of administered” value ([3]; 1 mg/kg i.v., 1 h, individual mice) was “No Peak”. For the same compound, the “Plasma concentration of administered” value ([3]; 1 mg/kg i.v., 2 h, individual mice) was “No Peak”, the “Plasma concentration of administered” value ([3]; 1 mg/kg i.v., 4 h, individual mice) was “No Peak” and the “Plasma concentration of administered” value ([3]; 1 mg/kg i.v., 6 h, individual mice) was “No Peak”. For the same compound, the “Plasma concentration of administered” value ([3]; 1 mg/kg i.v., 8 h, individual mice) was “No Peak”, the “tmax (parent compound in plasma)” value ([3]; 1 mg/kg i.v., individual mice) was 5 min and the “tmax (parent compound in plasma)” value ([3]; 1 mg/kg i.v., mean ± SD) was 5 ± 0 min. The “Plasma concentration of psilocin” value ([3]; 1.56 mg/kg oral of administered compound, individual mice) was “BLQ”, the “Plasma concentration of psilocin” value ([3]; 3 mg/kg oral of administered compound, individual mice) was “BLQ” and the concentration at 5 min ([3]; male, C57Bl/6, mouse, plasma, intravenous, 1 mg/kg, Plasma concentration of administered (parent) compound, 1 mg/kg i.v., 5 min, mean ± SD) was 144 ± 167 ng/mL. The concentration at 0.25 h ([3]; male, C57Bl/6, mouse, plasma, intravenous, 1 mg/kg, Plasma concentration of administered (parent) compound, 1 mg/kg i.v., 0.25 h, mean ± SD) was 13.2 ± 12.5 ng/mL, the concentration at 0.5 h ([3]; male, C57Bl/6, mouse, plasma, intravenous, 1 mg/kg, Plasma concentration of administered (parent) compound, 1 mg/kg i.v., 0.5 h, mean ± SD) was 4.28 ng/mL and the concentration at 1 h ([3]; male, C57Bl/6, mouse, plasma, intravenous, 1 mg/kg, Plasma concentration of administered (parent) compound, 1 mg/kg i.v., 1 h, individual mice) was 1.21 ng/mL. The concentration at 1 h ([3]; male, C57Bl/6, mouse, plasma, intravenous, 1 mg/kg, Plasma concentration of administered (parent) compound, 1 mg/kg i.v., 1 h, mean) was 1.21 ng/mL, the concentration at 8 h ([3]; male, C57Bl/6, mouse, plasma, intravenous, 1 mg/kg, Plasma concentration of administered (parent) compound, 1 mg/kg i.v., 8 h, individual mice) was 2.54 ng/mL and the Cmax ([3]; male, C57Bl/6, mouse, plasma, iv, 1 mg/kg, Cmax (parent compound in plasma), 1 mg/kg i.v., mean ± SD) was 144 ± 167 ng/mL. For the same compound, the “detectability of administered compound in plasma (in words)” value ([3]; oral vs i.v. dosing) was “only detectable in i.v. administered animals; also recorded: not detectable in orally administered animals at any dose”.
